In article PMC6035176, “Chemo-manipulation of tumor blood vessels by a metal-based anticancer complex enhances antitumor therapy” (Scientific Reports, 2018):

Target: T1, Poly(ADP-Ribose) Polymerase type 1 (PARP-1) (Homo sapiens, UniProt P09874)
T1 construct: gene PARP1
Assay: in vitro colorimetric PARP-1 activity assay
Type: biochemical

T1 sequence (P09874 2-1014): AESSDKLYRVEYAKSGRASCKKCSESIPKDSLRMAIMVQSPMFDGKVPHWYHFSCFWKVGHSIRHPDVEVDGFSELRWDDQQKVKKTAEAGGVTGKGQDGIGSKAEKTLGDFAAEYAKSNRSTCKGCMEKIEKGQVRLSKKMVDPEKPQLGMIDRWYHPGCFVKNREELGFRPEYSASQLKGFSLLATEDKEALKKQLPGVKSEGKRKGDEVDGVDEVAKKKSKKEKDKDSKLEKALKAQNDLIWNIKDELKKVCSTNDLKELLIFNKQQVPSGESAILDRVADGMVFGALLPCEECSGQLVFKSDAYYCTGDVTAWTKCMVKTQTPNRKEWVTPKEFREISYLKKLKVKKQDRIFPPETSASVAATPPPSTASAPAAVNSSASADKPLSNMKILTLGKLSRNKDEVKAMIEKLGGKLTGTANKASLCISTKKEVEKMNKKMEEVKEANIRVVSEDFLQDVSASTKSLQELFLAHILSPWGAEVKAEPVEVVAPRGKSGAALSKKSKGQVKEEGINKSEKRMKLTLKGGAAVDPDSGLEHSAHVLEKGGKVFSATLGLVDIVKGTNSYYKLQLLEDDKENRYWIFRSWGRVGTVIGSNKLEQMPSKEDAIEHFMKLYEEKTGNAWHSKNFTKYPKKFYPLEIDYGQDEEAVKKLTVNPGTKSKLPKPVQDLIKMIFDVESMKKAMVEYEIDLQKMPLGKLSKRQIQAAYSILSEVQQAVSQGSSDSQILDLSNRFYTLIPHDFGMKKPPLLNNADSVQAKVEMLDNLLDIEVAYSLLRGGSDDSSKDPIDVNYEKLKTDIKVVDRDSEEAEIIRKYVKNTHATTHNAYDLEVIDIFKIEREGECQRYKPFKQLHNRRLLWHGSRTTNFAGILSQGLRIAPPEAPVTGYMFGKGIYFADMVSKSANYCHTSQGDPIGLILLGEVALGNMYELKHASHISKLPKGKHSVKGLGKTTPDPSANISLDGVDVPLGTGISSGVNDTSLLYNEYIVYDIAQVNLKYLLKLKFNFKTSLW

IC50: 400 µM
Substance: RAPTA-T
